Assay results published in paper PMC11341970 (RSC Advances, 2024).
Like-named read-outs stand apart in the source and are kept apart here.

Assays:
EeAChE = EeAChE (Electrophorus electricus, UniProt O42275); assay: AChE inhibition assay; type: biochemical; settings: for AChE inhibition (% of inhibition): concentration not given
hBACE 1 = hBACE 1 (Homo sapiens, UniProt P56817); assay: BACE 1 inhibition assay; type: biochemical
[1] = read-out: eeAChE IC50 (μM) ± SD, Ellman assay, mean ± SD of three experiments
[2] = read-out: hBACE 1 IC50 (μM) ± SD, FRET assay, mean ± SD of three experiments

Sequence of EeAChE (O42275 24-633): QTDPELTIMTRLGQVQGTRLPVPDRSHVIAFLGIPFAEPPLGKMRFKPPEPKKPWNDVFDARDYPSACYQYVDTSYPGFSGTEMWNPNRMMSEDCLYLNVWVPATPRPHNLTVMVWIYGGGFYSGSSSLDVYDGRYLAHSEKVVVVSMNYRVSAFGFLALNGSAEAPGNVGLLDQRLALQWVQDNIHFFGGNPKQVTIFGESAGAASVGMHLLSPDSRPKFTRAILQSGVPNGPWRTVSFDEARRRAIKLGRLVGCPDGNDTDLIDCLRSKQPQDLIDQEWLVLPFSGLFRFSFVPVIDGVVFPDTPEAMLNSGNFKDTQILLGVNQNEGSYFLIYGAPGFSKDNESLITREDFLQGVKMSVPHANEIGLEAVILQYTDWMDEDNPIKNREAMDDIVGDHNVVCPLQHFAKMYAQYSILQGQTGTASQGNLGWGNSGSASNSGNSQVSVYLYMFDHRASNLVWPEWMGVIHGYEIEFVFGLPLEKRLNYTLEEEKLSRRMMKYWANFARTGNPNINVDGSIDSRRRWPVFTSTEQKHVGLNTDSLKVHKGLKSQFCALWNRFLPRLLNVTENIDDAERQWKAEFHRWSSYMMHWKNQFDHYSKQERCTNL
Sequence of hBACE 1 (P56817 46-501): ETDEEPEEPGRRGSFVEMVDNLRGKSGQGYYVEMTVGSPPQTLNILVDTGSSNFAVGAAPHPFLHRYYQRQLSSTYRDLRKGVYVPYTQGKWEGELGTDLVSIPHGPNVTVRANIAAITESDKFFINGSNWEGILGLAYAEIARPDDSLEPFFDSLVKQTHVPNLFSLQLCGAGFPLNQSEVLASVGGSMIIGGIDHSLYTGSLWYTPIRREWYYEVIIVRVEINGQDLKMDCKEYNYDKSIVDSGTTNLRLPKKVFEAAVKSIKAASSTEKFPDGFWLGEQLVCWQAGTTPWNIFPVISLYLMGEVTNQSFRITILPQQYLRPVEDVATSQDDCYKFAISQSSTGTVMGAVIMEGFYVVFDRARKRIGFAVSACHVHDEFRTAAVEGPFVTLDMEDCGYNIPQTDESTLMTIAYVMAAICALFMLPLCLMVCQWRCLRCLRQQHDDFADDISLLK

| SMILES | IC50 (EeAChE) [µM] | IC50 (hBACE 1) [µM] | other results |
| --- | --- | --- | --- |
| [H]/N=C(/N)NN=C(/C=C/c1ccccc1)c1cccn1Cc1ccccc1 [Compound 1a, (Z)-2-((E)-1-(1-Benzyl-1H-pyrrol-2-yl)-3-phenylallylidene)hydrazine-1-carboximidamide] | 215.3 ± 0.14 | 169.9 ± 1.27 |  |
| [H]/N=C(/N)NN=C(/C=C/c1ccccc1Cl)c1cccn1Cc1ccccc1 [Compound 1b, (Z)-2-((E)-1-(1-Benzyl-1H-pyrrol-2-yl)-3-(2-chlorophenyl)allylidene)hydrazine-1-carboximidamide] | 174 ± 0.92 | 183.8 ± 0.92 |  |
| [H]/N=C(/N)NN=C(/C=C/c1ccc([N+](=O)[O-])cc1)c1cccn1Cc1ccccc1 [Compound 1c, (Z)-2-((E)-1-(1-Benzyl-1H-pyrrol-2-yl)-3-(4-nitrophenyl)allylidene)hydrazine-1-carboximidamide] | 43.25 ± 0.41 | 194.3 ± 0.99 | AChE inhibition (% of inhibition) (EeAChE): 38.07% |
| [H]/N=C(/N)NN=C(/C=C/c1ccc(Cl)cc1Cl)c1cccn1Cc1ccccc1 [Compound 1d, (Z)-2-((E)-1-(1-Benzyl-1H-pyrrol-2-yl)-3-(2,4-dichlorophenyl)allylidene)hydrazine-1-carboximidamide] | 55.4 ± 0.91 | 207.9 ± 1.91 | AChE inhibition (% of inhibition) (EeAChE): 26.75% |
| [H]/N=C(/N)NN=C(/C=C/c1ccccc1F)c1cccn1Cc1ccccc1 [Compound 1e, (Z)-2-((E)-1-(1-Benzyl-1H-pyrrol-2-yl)-3-(2-fluorophenyl)allylidene)hydrazine-1-carboximidamide] | 172.3 ± 1.56 | 174.5 ± 1.48 |  |
| [H]/N=C(/N)NN=C(/C=C/c1ccc(OC)cc1)c1cccn1Cc1ccccc1 [Compound 1f, (Z)-2-((E)-1-(1-Benzyl-1H-pyrrol-2-yl)-3-(4-methoxyphenyl)allylidene)hydrazine-1-carboximidamide] | 139.1 ± 0.35 | 173 ± 1.06 |  |
| [H]/N=C(/N)NN=C(/C=C/c1ccc(OC)c(OC)c1)c1cccn1Cc1ccccc1 [Compound 1g, (Z)-2-((E)-1-(1-Benzyl-1H-pyrrol-2-yl)-3-(3,4-dimethoxyphenyl)allylidene)hydrazine-1-carboximidamide] | 146 ± 2.4 | 114 ± 1.7 |  |
| [H]/N=C(/N)NN=C(/C=C/c1ccc(C(C)C)cc1)c1cccn1Cc1ccccc1 [Compound 1h, (Z)-2-((E)-1-(1-Benzyl-1H-pyrrol-2-yl)-3-(4-isopropylphenyl)allylidene)hydrazine-1-carboximidamide] | 203.8 ± 1.7 | 108 ± 1.2 |  |
| [H]/N=C(/N)NN=C(/C=C/c1cccc(OC)c1)c1cccn1Cc1ccccc1 [Compound 1i, (Z)-2-((E)-1-(1-Benzyl-1H-pyrrol-2-yl)-3-(3-methoxyphenyl)allylidene)hydrazine-1-carboximidamide] | 206.6 ± 0.49 | 134.1 ± 0.21 |  |
| [H]/N=C(/N)NN=C(/C=C/c1ccccn1)c1cccn1Cc1ccccc1 [Compound 1j, (Z)-2-((E)-1-(1-Benzyl-1H-pyrrol-2-yl)-3-(pyridin-2-yl)allylidene)hydrazine-1-carboximidamide] | 95.6 ± 2.4 | 13.7 ± 0.77 | BACE 1 inhibition (%) (hBACE 1; concentration not given): 43.62% |
| [H]/N=C(/N)NN=C(/C=C/c1ccccc1)c1cccn1Cc1cc(OC)cc(OC)c1 [Compound 2a, (Z)-2-((E)-1-(1-(3,5-Dimethoxybenzyl)-1H-pyrrol-2-yl)-3-phenylallylidene)hydrazine-1-carboximidamide] | 231.2 ± 2.26 | 95.8 ± 3.45 |  |
| [H]/N=C(/N)NN=C(/C=C/c1ccccc1)c1cccn1Cc1ccc(OC(F)(F)F)cc1 [Compound 2b, (Z)-2-((E)-3-Phenyl-1-(1-(4-(trifluoromethoxy)benzyl)-1H-pyrrol-2-yl)allylidene)hydrazine-1-carboximidamide] |  |  | IC50 (EeAChE; [1]): 231.7 ± 1.27 µM; IC50 (hBACE 1; [2]): 86.19 ± 0.38 µM |
| [H]/N=C(/N)NN=C(/C=C/c1ccccc1)c1cccn1Cc1ccc(OC(F)F)cc1 [Compound 2c, (Z)-2-((E)-1-(1-(4-(Difluoromethoxy)benzyl)-1H-pyrrol-2-yl)-3-phenylallylidene)hydrazine-1-carboximidamide] |  |  | IC50 (EeAChE; [1]): 195.8 ± 0.99 µM; IC50 (hBACE 1; [2]): 15.4 ± 0.24 µM |
| [H]/N=C(/N)NN=C(/C=C/c1ccccc1)c1cccn1Cc1cc(F)ccc1F [Compound 2d, (Z)-2-((E)-1-(1-(2,5-Difluorobenzyl)-1H-pyrrol-2-yl)-3-phenylallylidene)hydrazine-1-carboximidamide] |  |  | IC50 (EeAChE; [1]): 153 ± 1.98 µM; IC50 (hBACE 1; [2]): 107 ± 3.04 µM |
| [H]/N=C(/N)NN=C(/C=C/c1ccccc1)c1cccn1Cc1cc(Cl)ccc1Cl [Compound 2e, (Z)-2-((E)-1-(1-(2,5-Dichlorobenzyl)-1H-pyrrol-2-yl)-3-phenylallylidene)hydrazine-1-carboximidamide] | 75.6 ± 3.09 | 178.2 ± 0.92 |  |
| [H]/N=C(/N)NN=C(/C=C/c1ccccc1)c1cccn1Cc1ccc(C)cc1 [Compound 2f, (Z)-2-((E)-1-(1-(4-Methylbenzyl)-1H-pyrrol-2-yl)-3-phenylallylidene)hydrazine-1-carboximidamide] | 176.7 ± 0.64 | 85.7 ± 2.43 |  |

| SMILES | IC50 (EeAChE) [µM] | IC50 (hBACE 1) [µM] | other results |
| --- | --- | --- | --- |
| [H]/N=C(/N)NN=C(/C=C/c1ccccc1)c1cccn1Cc1ccccc1F [Compound 2g, (Z)-2-((E)-1-(1-(2-Fluorobenzyl)-1H-pyrrol-2-yl)-3-phenylallylidene)hydrazine-1-carboximidamide] | 163 ± 3.18 | 100.8 ± 0.57 |  |
| [H]/N=C(/N)NN=C(/C=C/c1ccccc1)c1cccn1Cc1ccc(F)cc1C(F)(F)F [Compound 2h, (Z)-2-((E)-1-(1-(4-Fluoro-2-(trifluoromethyl)benzyl)-1H-pyrrol-2-yl)-3-phenylallylidene)hydrazine-1-carboximidamide] | 57.1 ± 3.91 | 74.2 ± 1.8 |  |
| [H]/N=C(/N)NN=C(/C=C/c1ccccc1)c1cccn1Cc1cc(C(F)(F)F)cc(C(F)(F)F)c1 [Compound 2i, (Z)-2-((E)-1-(1-(3,5-Bis(trifluoromethyl)benzyl)-1H-pyrrol-2-yl)-3-phenylallylidene)hydrazine-1-carboximidamide] | 77.56 ± 0.66 | 139.1 ± 1.13 |  |
| [H]/N=C(/N)NN=C(/C=C/c1ccccc1)c1cccn1Cc1ccc(CCCC)cc1 [Compound 2j, (Z)-2-((E)-1-(1-(4-Butylbenzyl)-1H-pyrrol-2-yl)-3-phenylallylidene)hydrazine-1-carboximidamide] | 55.4 ± 4.19 | 132.7 ± 1.22 |  |
| [H]/N=C(/N)NN=C(/C=C/c1ccccc1)c1cccn1Cc1ccc(F)cc1F [Compound 2k, (Z)-2-((E)-1-(1-(2,4-Difluorobenzyl)-1H-pyrrol-2-yl)-3-phenylallylidene)hydrazine-1-carboximidamide] | 61.1 ± 1.48 | 133 ± 1.84 |  |
| [H]/N=C(/N)NN=C(/C=C/c1ccccc1)c1cccn1Cc1ccc([N+](=O)[O-])cc1 [Compound 2l, (Z)-2-((E)-1-(1-(4-Nitrobenzyl)-1H-pyrrol-2-yl)-3-phenylallylidene)hydrazine-1-carboximidamide] | 43.6 ± 0.66 | 193.35 ± 0.07 |  |
| [H]/N=C(/N)NN=C(/C=C/c1ccccc1)c1cccn1Cc1cccc(Br)c1 [Compound 2m, (Z)-2-((E)-1-(1-(3-Bromobenzyl)-1H-pyrrol-2-yl)-3-phenylallylidene)hydrazine-1-carboximidamide] | 51.14 ± 0.22 | 134 ± 3.11 |  |
| [H]/N=C(/N)NN=C(/C=C/c1ccccc1)c1cccn1Cc1cccc(C#N)c1 [Compound 2o, (Z)-2-((E)-1-(1-(3-Cyanobenzyl)-1H-pyrrol-2-yl)-3-phenylallylidene)hydrazine-1-carboximidamide] | 75.4 ± 1.03 | 147.8 ± 0.28 |  |
| [H]/N=C(/N)NN=C(/C=C/c1ccccc1)c1cccn1Cc1cc(F)ccc1C [Compound 2p, (Z)-2-((E)-1-(1-(5-Fluoro-2-methylbenzyl)-1H-pyrrol-2-yl)-3-phenylallylidene)hydrazine-1-carboximidamide] | 80.13 ± 0.16 | 145 ± 0.28 |  |
| [H]/N=C(/N)NN=C(/C=C/c1ccccc1)c1cccn1Cc1ccc(C(C)(C)C)cc1 [Compound 2q, (Z)-2-((E)-1-(1-(4-(tert-Butyl)benzyl)-1H-pyrrol-2-yl)-3-phenylallylidene)hydrazine-1-carboximidamide] | 48.52 ± 0.23 | 167.5 ± 0.71 |  |
| [H]/N=C(/N)NN=C(/C=C/c1ccccc1)c1cccn1Cc1ccc(C(C)C)cc1 [Compound 2r, (Z)-2-((E)-1-(1-(4-Isopropylbenzyl)-1H-pyrrol-2-yl)-3-phenylallylidene)hydrazine-1-carboximidamide] | 50.4 ± 0.91 | 191.3 ± 1.41 |  |
| [H]/N=C(/N)NN=C(/C=C/c1ccc(F)cc1)c1cccn1Cc1ccc(Br)cc1 [Compound 3a, (Z)-2-((E)-1-(1-(4-Bromobenzyl)-1H-pyrrol-2-yl)-3-(4-fluorophenyl)allylidene)hydrazine-1-carboximidamide] |  |  | IC50 (EeAChE; [1]): 86.09 ± 0.33 µM; IC50 (hBACE 1; [2]): 165.7 ± 1.34 µM |
| [H]/N=C(/N)NN=C(/C=C/c1ccc(C(F)(F)F)cc1)c1cccn1Cc1ccc(CCCC)cc1 [Compound 3b, (Z)-2-((E)-1-(1-(4-Butylbenzyl)-1H-pyrrol-2-yl)-3-(4-(trifluoromethyl)phenyl)allylidene)hydrazine-1-carboximidamide] |  |  | IC50 (EeAChE; [1]): 57.4 ± 1.12 µM; IC50 (hBACE 1; [2]): 204.6 ± 0.42 µM |
| [H]/N=C(/N)NN=C(/C=C/c1ccc(OC)c(OC)c1)c1cccn1Cc1ccc(F)cc1C(F)(F)F [Compound 3c, (Z)-2-((E)-3-(3,4-Dimethoxyphenyl)-1-(1-(4-fluoro-2-(trifluoromethyl)benzyl)-1H-pyrrol-2-yl)allylidene)hydrazine-1-carboximidamide] |  |  | IC50 (EeAChE; [1]): 58.19 ± 0.44 µM; IC50 (hBACE 1; [2]): 204 ± 2.33 µM |
| [H]/N=C(/N)NN=C(/C=C/c1ccc(C(C)(C)C)cc1)c1cccn1Cc1ccc(F)cc1F [Compound 3d, (Z)-2-((E)-3-(4-(tert-Butyl)phenyl)-1-(1-(2,4-difluorobenzyl)-1H-pyrrol-2-yl)allylidene)hydrazine-1-carboximidamide] |  |  | IC50 (EeAChE; [1]): 104.3 ± 0.14 µM; IC50 (hBACE 1; [2]): 221.8 ± 1.27 µM |
| [H]/N=C(/N)NN=C(/C=C/c1ccc(OC)c(OC)c1)c1cccn1Cc1cc(OC)cc(OC)c1 [Compound 3e, (Z)-2-((E)-1-(1-(3,5-Dimethoxybenzyl)-1H-pyrrol-2-yl)-3-(3,4-dimethoxyphenyl)allylidene)hydrazine-1-carboximidamide] | 57.2 ± 2.47 | 162 ± 2.43 |  |
